Reference: PubChem BioAssay AID2078 (The Scripps Research Institute Molecular Screening Center, 2009)

Test system: Cytotoxicity
Assay: STAT3 blockade with qPCR and toxicity readouts – cell-based, STAT1 panel, cytotoxicity, late-stage follow-up (AID 2078)
Conditions: STAT3/STAT1 inhibition panel, cell reporter assay

**Q.** `c1ccc(CC2CCN(c3ncnc4sccc34)CC2)cc1` was tested. Which CC50 did it give?
**A.** > 55.7 µM
